# Earlier results as cited in patent US8415273B2, “Broadleaf perennial weed control agent for grass, and method for controlling broadleaf perennial weeds in grass” (Nippon Soda Co., Ltd., priority 2007, dated 2013).
# Columns and labels:
# [1] = tested on: turf grasses such as Zoysia japonica and Zoysia tenuifolia; details: soil-based herbicide
# [2] = tested on: broadleaf annual weeds such as chickweed and gramineous weeds such as crabgrass
smiles,measurement,setting,value
"NC(=O)c1nc(-c2ccccc2)n(-c2ccc(Cl)c(COCC(F)(F)C(F)(F)F)c2)n1 [flupoxam, 1-[4-chloro-3-[(2,2,3,3,3-pentafluoropropoxy)methyl]phenyl]-5-phenyl-1H-1,2,4-triazole-3-carboxamide]",Detrimental effects on turf grasses,[1],no detrimental effects
same,Control action on annual weeds in grass,[2],powerful control action
